Assay results: US10307413B2, “Tetrahydro- and dihydro-isoquinoline PRMT5 inhibitors and uses thereof” (Epizyme, Inc., priority 2013, dated 2019)
pEC50, pIC50: −log10 of the molar value. Like-named read-outs stand apart in the source and are kept apart here.

Tests used:
[1] = system: symmetric di-methyl arginine in Z-138 cells; assay: Z-138 Methylation Assay (In Cell Western for symmetric di-methyl arginine and DNA content); format: cell-based; conditions: Homo sapiens, read-out: ICW EC50
In short: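 In-cell western: symmetric di-methyl arginine signal ratioed to DRAQ5 DNA content after 96 h compound exposure of Z-138 cells seeded at 50,000 cells/mL.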

Z-138 cell line = assay: Z-138 Proliferation Assay (Cell Titer Glo, 5 days); format: cell-based; conditions: Homo sapiens, 120 h, Z-138 cells, 5 days, read-out: Proliferation EC50
In short: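 Viability via CellTiter-Glo luminescence (ATP) after 5-day incubation at 37 °C, 5% CO2. Compounds tested in triplicate, nine 3-fold steps, highest final concentration 20 μM in 0.2% DMSO; 50% inhibitory concentration by 4-parameter fit of normalized curves.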

PRMT5/MEP50 = PRMT5/MEP50 (Homo sapiens (Human), UniProt O14744); assay: PRMT5 Biochemical Assay (PRMT5/MEP50 enzyme assay on peptide substrate, 3H-SAM Flashplate)
In short: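 Radiometric methylation of a biotin-tagged H4(1-15) peptide by human PRMT5/MEP50 from baculovirus/Sf9, with ³H-SAM incorporation read on streptavidin Flashplates. Buffer: Bicine pH 7.6, TCEP, BSG, Tween20; compound preincubated 30 min at 25 °C; stopped with 600 µM final unlabeled SAM. DMSO and SAH controls; IC50 from fitted % inhibition.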

Chain of PRMT5/MEP50 (O14744 other isoform, or with tags, fused parts or gaps): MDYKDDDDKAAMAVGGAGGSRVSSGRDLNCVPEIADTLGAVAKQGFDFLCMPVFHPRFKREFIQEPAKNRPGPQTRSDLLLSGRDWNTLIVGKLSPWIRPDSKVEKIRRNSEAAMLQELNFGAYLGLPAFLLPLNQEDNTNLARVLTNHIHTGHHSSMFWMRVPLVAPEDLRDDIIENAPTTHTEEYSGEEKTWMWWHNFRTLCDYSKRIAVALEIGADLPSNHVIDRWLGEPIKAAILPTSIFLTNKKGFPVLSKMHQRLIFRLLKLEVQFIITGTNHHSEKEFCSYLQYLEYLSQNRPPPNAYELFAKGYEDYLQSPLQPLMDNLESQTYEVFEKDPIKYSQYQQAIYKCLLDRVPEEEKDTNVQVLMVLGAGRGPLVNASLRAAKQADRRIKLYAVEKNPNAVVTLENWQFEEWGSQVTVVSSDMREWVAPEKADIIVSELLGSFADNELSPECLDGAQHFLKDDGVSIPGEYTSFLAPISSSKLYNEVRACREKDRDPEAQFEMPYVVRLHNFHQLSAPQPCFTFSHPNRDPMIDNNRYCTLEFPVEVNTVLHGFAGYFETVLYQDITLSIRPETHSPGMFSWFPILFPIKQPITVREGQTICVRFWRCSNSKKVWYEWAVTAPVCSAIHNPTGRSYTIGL
Chain of PRMT5/MEP50 (Q9BQA1 other isoform, or with tags, fused parts or gaps partner): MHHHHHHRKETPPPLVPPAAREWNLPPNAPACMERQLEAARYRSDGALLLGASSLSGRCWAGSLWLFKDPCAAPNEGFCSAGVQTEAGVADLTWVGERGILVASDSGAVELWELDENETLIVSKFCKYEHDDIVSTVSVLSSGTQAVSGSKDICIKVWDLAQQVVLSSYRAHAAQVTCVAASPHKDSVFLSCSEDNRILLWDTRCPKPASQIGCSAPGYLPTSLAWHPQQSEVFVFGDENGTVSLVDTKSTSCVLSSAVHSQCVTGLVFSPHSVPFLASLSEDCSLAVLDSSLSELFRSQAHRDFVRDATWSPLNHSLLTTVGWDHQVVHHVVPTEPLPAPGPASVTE

Structure (SMILES) | pEC50 ([1]; In Cell Western methylation) | pEC50 (Z-138 cell line; Cell Titer Glo) | pIC50 (PRMT5/MEP50; PRMT5 biochemical assay) | pEC50 [1] | pEC50 (Z-138 cell line) | pIC50 (PRMT5/MEP50)
CC(=O)N1CCN(c2nc(NC3COC3)cc(C(=O)NC[C@H](O)CN3CCc4ccccc4C3)n2)CC1 [Compound 497] | > 7.00 | > 7.00 | > 7.00 |  |  | 
O=C(NC[C@H](O)CN1CCc2ccccc2C1)c1ccnc(OC2CCC2)c1 [Compound 350] |  |  |  | > 7.00 | 6.00 to 7.00 | > 7.00
CC(=O)N(C)[C@H]1C[C@H](Nc2cc(C(=O)NC[C@H](O)CN3CCc4ccccc4C3)ncn2)C1 [Compound 564] | > 7.00 | 6.00 to 7.00 | > 7.00 |  |  | 
CCCC(=O)N1CCC(Nc2cc(C(=O)NC[C@H](O)CN3CCc4ccccc4C3)ccn2)CC1 [Compound 468] | > 7.00 | > 7.00 | > 7.00 |  |  | 
CC(C)N1CCN(c2nc(NC3COC3)cc(C(=O)NC[C@H](O)CN3CCc4ccccc4C3)n2)CC1 [Compound 478] | > 7.00 | > 7.00 | > 7.00 |  |  | 
CC(C)CC(=O)N1CCC(Nc2cc(C(=O)NC[C@H](O)CN3CCc4ccccc4C3)ncn2)CC1 [Compound 409] | > 7.00 | > 7.00 | > 7.00 |  |  | 
CC1c2ccccc2CCN1C[C@@H](O)CNC(=O)c1cc(NC2COC2)ncn1 (stereo partly drawn) [Compound 573] | 6.00 to 7.00 | < 5.30 | 6.00 to 7.00 |  |  | 
O=C(NC[C@H](O)CN1CCc2ccccc2C1)c1cc(NC2CN(C(=O)C3CC3)C2)ncn1 [Compound 425] | > 7.00 | > 7.00 | > 7.00 |  |  | 
CN[C@H]1CC[C@@H](Nc2cc(C(=O)NC[C@H](O)CN3CCc4ccccc4C3)ncn2)CC1 [Compound 630] | 6.00 to 7.00 | < 5.30 | > 7.00 |  |  | 
COCCN(C)c1cc(C(=O)NC[C@H](O)CN2CCc3ccccc3C2)cc(NC2CCN(C(C)=O)CC2)n1 [Compound 614] | > 7.00 | > 7.00 | > 7.00 |  |  | 
CNC(=O)CN1CCC(Nc2cc(C(=O)NC[C@H](O)CN3CCc4ccccc4C3)ncn2)CC1 [Compound 533] | > 7.00 | > 7.00 | > 7.00 |  |  | 
CC(NC(=O)c1cc(NC2COC2)ncn1)[C@@H](O)CN1CCc2ccccc2C1 (stereo partly drawn) [Compound 492] | > 7.00 | 5.00 to 6.00 | > 7.00 |  |  | 
CN1CCC(Nc2cc(C(=O)NCC(C)(O)CN3CCc4ccccc4C3)ncn2)CC1 (stereo not drawn) [Compound 648] | < 6.00 | < 5.30 | 5.00 to 6.00 |  |  | 
CC(NC(=O)c1cc(NC2CCNCC2)ncn1)C(O)CN1CCc2ccccc2C1 (stereo not drawn) [Compound 534] | < 6.00 | < 5.30 | 6.00 to 7.00 |  |  | 
CC(=O)N1CCC(Nc2cc(C(=O)NC(C)C(O)CN3CCc4ccccc4C3)ncn2)CC1 (stereo not drawn) [Compound 536] | > 7.00 | 6.00 to 7.00 | > 7.00 |  |  | 
CC(=O)N1CCC(Nc2cc(C(=O)NCC(C)(O)CN3CCc4ccccc4C3)ncn2)CC1 (stereo not drawn) [Compound 649] | > 7.00 | 5.00 to 6.00 | > 7.00 |  |  | 
O=C(NC[C@H](O)CN1CCc2ccccc2C1)c1cc(N[C@H]2C[C@@H](N3CCOCC3)C2)ncn1 [Compound 637] | > 7.00 | 6.00 to 7.00 | > 7.00 |  |  | 
CNCCOc1cccc(C(=O)NCC(O)CN2CCc3ccccc3C2)c1 (stereo not drawn) [Compound 39] |  |  |  | 5.00 to 6.00 | < 4.70 | 6.00 to 7.00
NS(=O)(=O)c1ccc(C(=O)NCC(O)CN2CCc3ccccc3C2)cc1 (stereo not drawn) [Compound 21, N-(3-(3,4-dihydroisoquinolin-2(1H)-yl)-2-hydroxypropyl)-4-sulfamoylbenzamide] |  |  |  | 6.00 to 7.00 | < 4.70 | 6.00 to 7.00
O=C(NC[C@H](O)CN1CCc2ccccc2C1)c1cc(N[C@@H]2CCOC2)ncn1 [Compound 365] |  |  |  | > 7.00 | 6.00 to 7.00 | > 7.00
O=C(NC[C@H](O)CN1CCc2ccccc2C1)c1ccnc(OCCNCC(F)(F)F)c1 [Compound 421] | > 7.00 | 5.00 to 6.00 | > 7.00 |  |  | 
CN1CCC(Nc2cccc(C(=O)NCC(O)CN3CCc4ccccc4C3)c2)C1 (stereo not drawn) [Compound 120] |  |  |  | 6.00 to 7.00 | 5.00 to 6.00 | > 7.00
